The subject of one assay is CD8+ T cells. Kind of assay: In vitro T-cell priming (immunogenicity) with aAPCs loaded with peptide/MHC and anti-CD28, pMHC multimer readout. The format is cell-based, human. To be noted: in vitro immunogenicity; HLA-A*02 restricted peptides; positive wells among evaluable. The source says:
In order to obtain information regarding the immunogenicity of the TUMAPs of the present invention, the inventors performed investigations using an in vitro T-cell priming assay based on repeated stimulations of CD8+ T cells with artificial antigen presenting cells (aAPCs) loaded with peptide/MHC complexes and anti-CD28 antibody.
In order to perform in vitro stimulations by artificial antigen presenting cells loaded with peptide-MHC complex (pMHC) and anti-CD28 antibody, the inventors first isolated CD8+ T cells from fresh HLA-A*02 leukapheresis products via positive selection using CD8 microbeads (Miltenyi Biotec, Bergisch-Gladbach, Germany) of healthy donors obtained from the University clinics Mannheim, Germany, after informed consent.
PBMCs and isolated CD8+ lymphocytes were incubated in T-cell medium (TCM) until use consisting of RPMI-Glutamax (Invitrogen, Karlsruhe, Germany) supplemented with 10% heat inactivated human AB serum (PAN-Biotech, Aidenbach, Germany), 100 U/ml Penicillin/100 μg/ml Streptomycin (Cambrex, Cologne, Germany), 1 mM sodium pyruvate (CC Pro, Oberdorla, Germany), 20 μg/ml Gentamycin (Cambrex). 2.5 ng/ml IL-7 (PromoCell, Heidelberg, Germany) and 10 U/ml IL-2 (Novartis Pharma, Nürnberg, Germany) were also added to the TCM at this step.
Generation of pMHC/anti-CD28 coated beads, T-cell stimulations and readout was performed in a highly defined in vitro system using four different pMHC molecules per stimulation condition and 8 different pMHC molecules per readout condition.
The purified co-stimulatory mouse IgG2a anti human CD28 Ab 9.3 (Jung et al., 1987) was chemically biotinylated using Sulfo-N-hydroxysuccinimidobiotin as recommended by the manufacturer (Perbio, Bonn, Germany). Beads used were 5.6 μm diameter streptavidin coated polystyrene particles (Bangs Laboratories, Illinois, USA).
pMHC used for positive and negative control stimulations were A*0201/MLA-001 (peptide […] (SEQ ID NO. 664) from modified Melan-A/MART-1) and A*0201/DDX5-001 ([…] from DDX5, SEQ ID NO. 665), respectively.
800.000 beads/200 μl were coated in 96-well plates in the presence of 4×12.5 ng different biotin-pMHC, washed and 600 ng biotin anti-CD28 were added subsequently in a volume of 200 μl. Stimulations were initiated in 96-well plates by co-incubating 1×10^6 CD8+ T cells with 2×10^5 washed coated beads in 200 μl TCM supplemented with 5 ng/ml IL-12 (PromoCell) for 3 days at 37° C. Half of the medium was then exchanged by fresh TCM supplemented with 80 U/ml IL-2 and incubating was continued for 4 days at 37° C. This stimulation cycle was performed for a total of three times. For the pMHC multimer readout using 8 different pMHC molecules per condition, a two-dimensional combinatorial coding approach was used as previously described (Andersen et al., 2012) with minor modifications encompassing coupling to 5 different fluorochromes. Finally, multimeric analyses were performed by staining the cells with Live/dead near IR dye (Invitrogen, Karlsruhe, Germany), CD8-FITC antibody clone SK1 (BD, Heidelberg, Germany) and fluorescent pMHC multimers. For analysis, a BD LSRII SORP cytometer equipped with appropriate lasers and filters was used. Peptide specific cells were calculated as percentage of total CD8+ cells. Evaluation of multimeric analysis was done using the FlowJo software (Tree Star, Oregon, USA). In vitro priming of specific multimer+CD8+ lymphocytes was detected by comparing to negative control stimulations.
Exemplary flow cytometry results after TUMAP-specific multimer staining for two peptides of the invention are shown in FIG. 3 together with corresponding negative controls.

Another assay deals with HLA-A*02:01 (Homo sapiens, UniProt P04439, D140Y/D185E/D98H/E176V/E277Q/G131W/G231S/I119V/I121R/I166T/I218V/L300P/L318F/N151K/N90K/P208A/P217A/Q86G/Q94H/R138H/R169H/T345S). Kind of assay: MHC binding assay (UV-ligand exchange, β2m ELISA, peptide exchange yield). To be noted: MHC class I binding score; binding to HLA-A*02:01 ranged by peptide exchange yield (UV-ligand exchange, β2m ELISA). A digest of the protocol: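 Peptide–HLA-A*02:01 complexes were formed by UV-mediated exchange of a UV-cleavable ligand for the test peptide. Exchange yield was measured by capturing complexes on streptavidin, detecting with HRP anti-β2m antibody (1 h, 37°C) and reading TMB absorbance at 450 nm.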

For another assay, the system named is ovarian cancer. The settings on record: clinical studies, phase as stated; cited from earlier work.

This is an account of results in patent US20170037111A1, “Novel peptides and combination of peptides for use in immunotherapy against ovarian cancer and other cancers” (immatics biotechnologies GmbH, priority 2015, published 2017).

For the substance “446 (QLIPALAKV; listed as Homo sapiens) [compound 446]”, the “Wells positive [%]” value in the assay on CD8+ T cells was “″++″ (20%-49% = ++)”. For the same substance, the Peptide exchange entry with HLA-A*02:01 is “″+++″ (≧50% = +++)”.
The matching figures for “454 (KLPPPPPQA; listed as Homo sapiens) [compound 454]”: “″++″ (20%-49% = ++)” and “″+++″ (≧50% = +++)”.
As for “460 (AMLEKNYKL; listed as Homo sapiens) [compound 460]”, the “Wells positive [%]” value with CD8+ T cells was “″+″ (<20% = +)”. Moreover, the Peptide exchange entry with HLA-A*02:01 is on record as “″++++″ (≧75% = ++++)”.
Regarding “463 (SLVESHLSDQLTL; listed as Homo sapiens) [compound 463]”, the “Wells positive [%]” value in the assay on CD8+ T cells is “″++″ (20%-49% = ++)”. Further, the Peptide exchange result with HLA-A*02:01 was “″+++″ (≧50% = +++)”.
Consider “489 (KMWEELPEVV; listed as Homo sapiens) [compound 489]”, for which the “Wells positive [%]” value with CD8+ T cells is on record as “″+″ (<20% = +)”. In the assay with HLA-A*02:01, the Peptide exchange result is on record as “″+++″ (≧50% = +++)”.
As for “499 (KIFDIDEAEEGV; listed as Homo sapiens) [compound 499]”, the “Wells positive [%]” value in the assay on CD8+ T cells is recorded as “″+″ (<20% = +)”. Also, the Peptide exchange result with HLA-A*02:01 is given as “″++″ (≧20% = ++)”.
For the substance “511 (FLDPYCSASV; listed as Homo sapiens) [compound 511]”, in the assay with CD8+ T cells, the “Wells positive [%]” value was “″+″ (<20% = +)”. For the same substance, the Peptide exchange entry in the assay with HLA-A*02:01 is on record as “″++″ (≧20% = ++)”.
As for “518 (KLNAEVACV; listed as Homo sapiens) [compound 518]”, the “Wells positive [%]” value with CD8+ T cells is listed as “″++″ (20%-49% = ++)”. Moreover, in the assay with HLA-A*02:01, the Peptide exchange entry is reported as “″+++″ (≧50% = +++)”.
In the same order, the values of “603 (FLIEPEHVNTV; listed as Homo sapiens) [compound 603]” are “″+″ (<20% = +)” and “″++″ (≧20% = ++)”.
On to “Ipilimumab: anti-CTLA4 antibody, which enhances T cell activity”, for which the “clinical effect in ovarian cancer patients” value (“clinical effect” below) in the assay on ovarian cancer is on record as “significant anti-tumor effects”.
With “MORAb-003: anti-folate receptor alpha antibody”, in the assay with ovarian cancer, the “clinical effect” value is “limited clinical benefit”.
In the case of bevacizumab: anti-VEGF antibody, the “clinical effect” value with ovarian cancer is reported as “appears to be advantageous”.
catumaxomab: the “clinical effect” value in the assay with ovarian cancer was “promising results”.
As to oregovomab, in the assay with ovarian cancer, the “clinical effect” value is on record as “promising results”.
